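Each compound was tested at five concentrations against cells in 96-well plates for 48 hours. Abbreviation: GI50, concentration required for 50% inhibition of growth.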 Calls of active or inactive are those of the source. Rule as the data show it: active = GI50 up to about 1.1 µM and inactive = higher.
Tests used:
Assay in all cases: DTP human tumour cell line panel, 48 h
A549 = test system: A549
CAKI-1 = test system: CAKI-1
COLO 205 = test system: COLO 205
EKVX = test system: EKVX
HOP-62 = test system: HOP-62
HOP-92 = test system: HOP-92
HT-29 = test system: HT-29
IGROV-1 = test system: IGROV-1
NCI-H226 = test system: NCI-H226
NCI-H23 = test system: NCI-H23
NCI-H460 = test system: NCI-H460
NCI/ADR-RES = test system: NCI/ADR-RES
OVCAR-4 = test system: OVCAR-4
RXF 393 = test system: RXF 393
SF-268 = test system: SF-268
SK-MEL-2 = test system: SK-MEL-2
SR = test system: SR
SW-620 = test system: SW-620
T47D = test system: T47D
TK-10 = test system: TK-10

Measured: GI50

COc1cc(OC)c(/C=N/N=C(\N)NO)c(OC)c1
inactive: A549 60.8 µM | CAKI-1 > 100 µM | COLO 205 > 100 µM | EKVX 35.4 µM | HOP-62 55.8 µM | HOP-92 > 100 µM | HT-29 > 100 µM | IGROV-1 90.6 µM | NCI-H226 > 100 µM | NCI-H23 > 100 µM | NCI-H460 91.4 µM | NCI/ADR-RES > 100 µM | OVCAR-4 > 100 µM | RXF 393 > 100 µM | SF-268 > 100 µM | SK-MEL-2 > 100 µM | SR 63.5 µM | SW-620 > 100 µM | T47D > 100 µM | TK-10 > 100 µM

CCOC(=O)c1ccc(/N=C2\SC(=S)N(c3ccc(F)cc3)\C2=N/c2ccc(C(=O)OCC)cc2)cc1
inactive: A549 41 µM | CAKI-1 21.9 µM | COLO 205 19.3 µM | EKVX 22.1 µM | HOP-62 > 58.7 µM | HOP-92 7.76 µM | HT-29 30.5 µM | IGROV-1 14.4 µM | NCI-H226 21.8 µM | NCI-H23 17.8 µM | NCI-H460 51.9 µM | NCI/ADR-RES 17 µM | OVCAR-4 12.1 µM | RXF 393 9.68 µM | SF-268 7.4 µM | SK-MEL-2 12.9 µM | SR 2.2 µM | SW-620 12.5 µM | T47D 5.19 µM | TK-10 18.9 µM

Cc1nc(O)nc(N/N=C/c2ccc(Cl)cc2)c1C(=O)NC(C)(CO)CO
inactive: CAKI-1 > 100 µM | COLO 205 > 100 µM | EKVX > 100 µM | HOP-62 > 100 µM | HOP-92 > 100 µM | HT-29 > 100 µM | IGROV-1 > 100 µM | NCI-H226 > 100 µM | NCI-H23 > 100 µM | NCI-H460 > 100 µM | NCI/ADR-RES > 100 µM | OVCAR-4 > 100 µM | RXF 393 > 100 µM | SF-268 > 100 µM | SK-MEL-2 > 100 µM | SR > 100 µM | SW-620 > 100 µM | T47D 60.7 µM | TK-10 > 100 µM

O=C1CCCCc2cccc(O)c21
inactive: CAKI-1 > 100 µM | COLO 205 > 100 µM | EKVX > 100 µM | HOP-62 > 100 µM | HOP-92 > 100 µM | HT-29 > 100 µM | IGROV-1 > 100 µM | NCI-H226 > 100 µM | NCI-H23 > 100 µM | NCI-H460 > 100 µM | NCI/ADR-RES > 100 µM | OVCAR-4 > 100 µM | RXF 393 > 100 µM | SF-268 > 100 µM | SK-MEL-2 > 100 µM | SR > 100 µM | SW-620 > 100 µM | T47D > 100 µM | TK-10 > 100 µM
